Consider 27 compounds from patent US10667517B2, “2-(Het)aryl-substituted fused heterocycle derivatives as pesticides” (BAYER CROPSCIENCE AKTIENGESELLSCHSAFT, priority 2015, dated 2020).

Data set [1] in a line: log P (neutral), HPLC on reversed-phase column (C 18), LC-MS neutral range. The format is physicochemical. As to conditions: pH 7.8, ammonium hydrogencarbonate/acetonitrile; for chromatographic logP: reversed-phase HPLC column (C 18), pH 7.8, HPLC reversed-phase C 18, 55° C. The protocol: Temperature: 55° C. […] Called log P (neutral) in the table.
The test system of data set [2] is Phaedon cochleariae. In words: Phaedon cochleariae - spray test. As to conditions: application rate 500 g/ha, mustard beetle larvae on Chinese cabbage leaf discs, after 7 days; for pest or weed control at 500 g/ha: Phaedon cochleariae, foliar, 168 h, read-out: efficacy. It counts as in vivo. The method, then: Phaedon cochleariae—Spray Test
(§1) • Solvent: 78.0 parts by weight of acetone • 1.5 parts by weight of dimethylformamide • Emulsifier: alkylaryl polyglycol ether
(§2) To produce a suitable active compound preparation, 1 part by weight of active compound is dissolved with the stated parts by weight of solvent and made up with water containing an emulsifier concentration of 1000 ppm until the desired concentration is attained. To produce further test concentrations, the preparation is diluted with emulsifier-containing water.
After 7 days, the efficacy in % is determined. 100% means that all the beetle larvae have been killed; 0% means that no beetle larvae have been killed.

The subject of data set [3] is Spodoptera frugiperda. Put plainly: Spodoptera frugiperda - spray test. As to conditions: application rate 500 g/ha; armyworm caterpillars on maize leaf discs; after 7 days. The format is in vivo. The protocol:
Spodoptera frugiperda—Spray Test
as §1, §2
Leaf discs of maize (Zea mays) are sprayed with an active compound preparation of the desired concentration and, after drying, populated with caterpillars of the armyworm (Spodoptera frugiperda).
After 7 days, the efficacy in % is determined. 100% means that all the caterpillars have been killed; 0% means that no caterpillars have been killed.

Molecules are shown by their SMILES.

On to `CCS(=O)(=O)c1ccc(-n2cc(C(F)(F)F)cn2)nc1-c1nc2cc(C(F)(F)F)ccc2n1C` [Example I-1, 2-{3-(Ethylsulphonyl)-6-[4-(trifluoromethyl)-1H-pyrazol-1-yl]pyridin-2-yl}-1-methyl-5-(trifluoromethyl)-1H-benzimidazole], for which the chromatographic logP (commonly a lipophilicity value derived from retention on a column) in data set [1] worked out at 4.16. Further, the pest or weed control at 500 g/ha in data set [2] came out at 100%. The compound also showed an efficacy in data set [3] of 100%.

For `CCS(=O)(=O)c1ccc(NC(C)=O)nc1-c1nc2cc3c(cc2n1C)OC(F)(F)O3` [Example I-7, N-[6-(2,2-Difluoro-7-methyl-[1,3]dioxolo[4,5-f]benzimidazol-6-yl)-5-ethylsulphonyl-2-pyridyl]acetamide], in data set [1], the chromatographic logP is 2.42. Besides, the pest or weed control at 500 g/ha in data set [2] stood at 100%. In addition, the efficacy in data set [3] stood at 83%.

For `CC[S+]([O-])c1ccc(-n2cc(C(F)(F)F)cn2)nc1-c1nc2cc(C(F)(F)F)cnc2n1C` (stereo not drawn) [Example I-12], the “log P (neutral)” value in data set [1] (HPLC reversed-phase C 18, 55° C.) turned out to be 4.23. The efficacy in data set [3] was determined as 100%.

On to `CCS(=O)(=O)c1ccc(-n2ccc(C(F)(F)F)n2)nc1-c1cn2cnc(C(F)(F)F)cc2n1` [Example I-29], for which the efficacy in data set [2] and in data set [3] was 100% in each case.

The compound `Cn1c(-c2nc(F)ccc2F)nc2cc(C(F)(F)F)cnc21` [IX-2, 2-(3,6-Difluoropyridin-2-yl)-3-methyl-6-(trifluoromethyl)-3H-imidazo[4,5-b]pyridine] yielded a chromatographic logP in data set [1] of 2.72.

In data set [1], `Cn1c(-c2nc(Cl)ccc2Cl)nc2cc3c(cc21)OC(F)(F)O3` [IX-3, 6-(3,6-Dichloro-2-pyridyl)-2,2-difluoro-7-methyl-[1,3]dioxolo[4,5-f]benzimidazole] came in with a chromatographic logP of 3.22.

`FC1(F)Oc2cc3nc(-c4nc(Cl)ccc4Cl)[nH]c3cc2O1` [IX-4, 6-(3,6-Dichloro-2-pyridyl)-2,2-difluoro-5H-[1,3]dioxolo[4,5-f]benzimidazole] gave a chromatographic logP in data set [1] of 3.2.

In turn, `Fc1ccc(F)c(-c2cn3cnc(C(F)(F)F)cc3n2)n1` [IX-5, 2-(3,6-Difluoropyridin-2-yl)-7-(trifluoromethyl)imidazo[1,2-c]pyrimidine] came in with a chromatographic logP in data set [1] of 2.02.

The compound `Cn1c(-c2nc(Cl)ccc2Cl)nc2cc(C(F)(F)F)nnc21` [IX-7, 6-(3,6-Dichloro-2-pyridyl)-7-methyl-3-(trifluoromethyl)imidazo[4,5-c]pyridazine] registered a chromatographic logP in data set [1] of 2.65.

As for `CCSc1ccc(Br)nc1C(=O)Nc1cc(C(F)(F)F)cnc1Cl` [LXIX-1, 6-Bromo-N-[2-chloro-5-(trifluoromethyl)pyridin-3-yl]-3-(ethylsulphanyl)pyridine-2-carboxamide], the chromatographic logP in data set [1] is 5.27.

`CCSc1ccc(SCC)c(-c2cn3cc(C(F)(F)F)ncc3n2)n1` [LXXI-1, 2-[3,6-Bis(ethylsulphanyl)pyridin-2-yl]-6-(trifluoromethyl)imidazo[1,2-a]pyrazine] had a chromatographic logP in data set [1] of 4.

As to `CCS(=O)(=O)c1ccc(S(=O)(=O)CC)c(-c2cn3cnc(C(F)(F)F)cc3n2)n1` [LXXIII-1, 2-[3,6-Bis(ethylsulphonyl)pyridin-2-yl]-7-(trifluoromethyl)imidazo[1,2-c]pyrimidine], the chromatographic logP in data set [1] was determined as 2.28.

`CCS(=O)(=O)c1ccc(S(=O)(=O)CC)c(-c2cn3cc(C(F)(F)F)ncc3n2)n1` [LXXIII-2, 2-[3,6-Bis(ethylsulphonyl)pyridin-2-yl]-6-(trifluoromethyl)imidazo[1,2-a]pyrazine]: the chromatographic logP in data set [1] turned out to be 2.23.

Consider `CCSc1ccc(C(=O)OC)nc1-c1nc2cc(C(F)(F)F)cnc2n1C` [LXXIX-1, Methyl 5-(ethylsulphanyl)-6-[3-methyl-6-(trifluoromethyl)-3H-imidazo[4,5-b]pyridin-2-yl]pyridine-2-carboxylate], for which the chromatographic logP in data set [1] stood at 3.25.

The compound `COC(=O)c1ccc(Cl)c(-c2nc3cc(C(F)(F)F)cnc3n2C)n1` [LXXVIII-1, Methyl 5-chloro-6-[3-methyl-6-(trifluoromethyl)-3H-imidazo[4,5-b]pyridin-2-yl]pyridine-2-carboxylate] showed a chromatographic logP in data set [1] of 2.7.

The compound `CCS(=O)(=O)c1ccc(C(=O)OC)nc1-c1nc2cc(C(F)(F)F)cnc2n1C` [LXXX-1, Methyl 5-(ethylsulphonyl)-6-[3-methyl-6-(trifluoromethyl)-3H-imidazo[4,5-b]pyridin-2-yl]pyridine-2-carboxylate] came in with a chromatographic logP in data set [1] of 2.61.

`CCS(=O)(=O)c1ccc(C(=O)OC)nc1-c1nc2cc(C(F)(F)F)nnc2n1C` [LXXX-2, Methyl 5-(ethylsulphonyl)-6-[7-methyl-3-(trifluoromethyl)-7H-imidazo[4,5-c]pyridazin-6-yl]pyridine-2-carboxylate] registered a chromatographic logP in data set [1] of 2.19.

For the compound `CCSc1ccc(F)nc1-c1nc2cc(C(F)(F)F)ccc2n1C` [XI-1, 2-[3-(Ethylsulphanyl)-6-fluoropyridin-2-yl]-1-methyl-5-(trifluoromethyl)-1H-benzimidazole], the chromatographic logP in data set [1] was found to be 3.44.

With `CCSc1ccc(F)nc1-c1nc2cc(C(F)(F)F)cnc2n1C` [XI-2, 2-[3-(Ethylsulphanyl)-6-fluoropyridin-2-yl]-3-methyl-6-(trifluoromethyl)-3H-imidazo[4,5-b]pyridine], the chromatographic logP in data set [1] came to 3.45.

Take `CCSc1ccc(Cl)nc1-c1nc2cc3c(cc2n1C)OC(F)(F)O3` [XI-3, 6-(6-Chloro-3-ethylsulphanyl-2-pyridyl)-2,2-difluoro-7-methyl-[1,3]dioxolo[4,5-f]benzimidazole]: the chromatographic logP in data set [1] was determined as 3.8.

In data set [1], `CCSc1ccc(F)nc1-c1cn2cnc(C(F)(F)F)cc2n1` [XI-4, 2-[3-(Ethylsulphanyl)-6-fluoropyridin-2-yl]-7-(trifluoromethyl)imidazo[1,2-c]pyrimidine] yielded a chromatographic logP of 2.78.

In data set [1], `CCSc1ccc(Br)nc1-c1nc2cc(C(F)(F)F)cnc2o1` [XI-5, 2-[6-Bromo-3-(ethylsulphanyl)pyridin-2-yl]-6-(trifluoromethyl)[1,3]oxazolo[5,4-b]pyridine] came in with a chromatographic logP of 4.16.

In data set [1], `CCSc1ccc(Cl)nc1-c1nc2cc(C(F)(F)F)nnc2n1C` [XI-6, 6-(6-Chloro-3-ethylsulphanyl-2-pyridyl)-7-methyl-3-(trifluoromethyl)imidazo[4,5-c]pyridazine] displayed a chromatographic logP of 3.28.

With `CCS(=O)(=O)c1ccc(F)nc1-c1nc2cc(C(F)(F)F)ccc2n1C` [XIII-1, 2-[3-(Ethylsulphonyl)-6-fluoropyridin-2-yl]-1-methyl-5-(trifluoromethyl)-1H-benzimidazole], in data set [1], the chromatographic logP is 2.96.

As for `CCS(=O)(=O)c1ccc(F)nc1-c1nc2cc(C(F)(F)F)cnc2n1C` [XIII-2, 2-[3-(Ethylsulphonyl)-6-fluoropyridin-2-yl]-3-methyl-6-(trifluoromethyl)-3H-imidazo[4,5-b]pyridine], in data set [1], the chromatographic logP is 2.8.

For `CCS(=O)(=O)c1ccc(Cl)nc1-c1nc2cc3c(cc2n1C)OC(F)(F)O3` [XIII-3, 6-(6-Chloro-3-ethylsulphonyl-2-pyridyl)-2,2-difluoro-7-methyl-[1,3]dioxolo[4,5-f]benzimidazole], the chromatographic logP in data set [1] amounted to 3.2.

`CCS(=O)(=O)c1ccc(Cl)nc1-c1nc2cc(C(F)(F)F)nnc2n1C` [XIII-5, 6-(6-Chloro-3-ethylsulphonyl-2-pyridyl)-7-methyl-3-(trifluoromethyl)imidazo[4,5-c]pyridazine] yielded a chromatographic logP in data set [1] of 2.6.
